Experimental data published in patent US20230257396A1, “MACROCYCLES AND THEIR USE” (BLOSSOMHILL THERAPEUTICS, INC., priority 2020, published 2023).

Legend:
Assay in all cases: KINOMEscan kinase binding assay (Eurofins/DiscoveRx), % Ctrl
Settings in all cases: 1 μM
[1] = target: T1, kinases (Homo sapiens, UniProt P10721)
T1 construct: purchased Eurofins/DiscoveRx; host or cells: E. coli BL21-derived host (T7 phage display) for most kinases; HEK-293 for the rest
Outline: (§1)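 Competition binding, 1 h RT: phage-tagged or HEK-293-expressed DNA-tagged kinase + immobilized ligand + compound. Eluate kinase by qPCR. % Ctrl = (test − positive ctrl)/(negative ctrl − positive ctrl) × 100; lower means stronger binding.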

[2] = target: T2, kinases (Homo sapiens, UniProt P00533)
T2 construct: purchased Eurofins/DiscoveRx; host or cells: E. coli BL21-derived host (T7 phage display) for most kinases; HEK-293 for the rest
Outline: as §1

[3] = target: T3, kinases (Homo sapiens, UniProt P35916)
T3 construct: purchased Eurofins/DiscoveRx; host or cells: E. coli BL21-derived host (T7 phage display) for most kinases; HEK-293 for the rest
Outline: as §1

[4] = target: T4, kinases (Homo sapiens, UniProt P00519, Q252H)
T4 construct: purchased Eurofins/DiscoveRx; host or cells: E. coli BL21-derived host (T7 phage display) for most kinases; HEK-293 for the rest
Outline: as §1

[5] = target: T5, kinases (Homo sapiens, UniProt P36888, R834Q)
T5 construct: purchased Eurofins/DiscoveRx; host or cells: E. coli BL21-derived host (T7 phage display) for most kinases; HEK-293 for the rest
T5 sequence (P36888 27-993 R834Q): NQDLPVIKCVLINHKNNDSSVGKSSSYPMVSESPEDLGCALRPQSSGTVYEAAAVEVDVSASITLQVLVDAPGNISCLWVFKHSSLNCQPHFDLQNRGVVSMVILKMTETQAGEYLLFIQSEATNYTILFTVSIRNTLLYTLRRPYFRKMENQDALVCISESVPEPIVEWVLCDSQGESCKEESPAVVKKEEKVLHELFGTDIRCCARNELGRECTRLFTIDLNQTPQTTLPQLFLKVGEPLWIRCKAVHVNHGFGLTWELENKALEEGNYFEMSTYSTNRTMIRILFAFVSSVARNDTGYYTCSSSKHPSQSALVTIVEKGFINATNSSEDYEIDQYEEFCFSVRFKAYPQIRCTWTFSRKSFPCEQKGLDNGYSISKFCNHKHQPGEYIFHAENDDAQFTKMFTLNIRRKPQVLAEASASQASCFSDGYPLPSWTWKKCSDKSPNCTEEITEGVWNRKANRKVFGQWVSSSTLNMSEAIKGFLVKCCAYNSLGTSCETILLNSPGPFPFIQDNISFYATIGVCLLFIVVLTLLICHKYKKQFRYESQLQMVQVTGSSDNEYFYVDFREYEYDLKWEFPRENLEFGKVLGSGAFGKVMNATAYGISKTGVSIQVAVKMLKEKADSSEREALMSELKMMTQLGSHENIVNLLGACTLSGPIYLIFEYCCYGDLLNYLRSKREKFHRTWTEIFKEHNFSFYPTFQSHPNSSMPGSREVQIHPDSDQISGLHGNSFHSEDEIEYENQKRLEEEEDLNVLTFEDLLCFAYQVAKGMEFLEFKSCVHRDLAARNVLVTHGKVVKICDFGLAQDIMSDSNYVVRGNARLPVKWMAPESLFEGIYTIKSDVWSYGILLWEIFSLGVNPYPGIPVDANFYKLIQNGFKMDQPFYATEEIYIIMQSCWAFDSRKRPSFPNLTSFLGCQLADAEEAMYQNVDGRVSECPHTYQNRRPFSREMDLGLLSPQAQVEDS
Outline: as §1

[6] = test system: kinases
Outline: as §1

[7] = target ABL1(Q252H)-nonphosphorylated
[8] = target ABL1(Q252H)-phosphorylated
[9] = target EGFR(L747-E749del, A750P)
[10] = target EGFR(L747-S752del, P753S)
[11] = target EGFR(L747-T751del, Sins)

T1 sequence (P10721 26-976): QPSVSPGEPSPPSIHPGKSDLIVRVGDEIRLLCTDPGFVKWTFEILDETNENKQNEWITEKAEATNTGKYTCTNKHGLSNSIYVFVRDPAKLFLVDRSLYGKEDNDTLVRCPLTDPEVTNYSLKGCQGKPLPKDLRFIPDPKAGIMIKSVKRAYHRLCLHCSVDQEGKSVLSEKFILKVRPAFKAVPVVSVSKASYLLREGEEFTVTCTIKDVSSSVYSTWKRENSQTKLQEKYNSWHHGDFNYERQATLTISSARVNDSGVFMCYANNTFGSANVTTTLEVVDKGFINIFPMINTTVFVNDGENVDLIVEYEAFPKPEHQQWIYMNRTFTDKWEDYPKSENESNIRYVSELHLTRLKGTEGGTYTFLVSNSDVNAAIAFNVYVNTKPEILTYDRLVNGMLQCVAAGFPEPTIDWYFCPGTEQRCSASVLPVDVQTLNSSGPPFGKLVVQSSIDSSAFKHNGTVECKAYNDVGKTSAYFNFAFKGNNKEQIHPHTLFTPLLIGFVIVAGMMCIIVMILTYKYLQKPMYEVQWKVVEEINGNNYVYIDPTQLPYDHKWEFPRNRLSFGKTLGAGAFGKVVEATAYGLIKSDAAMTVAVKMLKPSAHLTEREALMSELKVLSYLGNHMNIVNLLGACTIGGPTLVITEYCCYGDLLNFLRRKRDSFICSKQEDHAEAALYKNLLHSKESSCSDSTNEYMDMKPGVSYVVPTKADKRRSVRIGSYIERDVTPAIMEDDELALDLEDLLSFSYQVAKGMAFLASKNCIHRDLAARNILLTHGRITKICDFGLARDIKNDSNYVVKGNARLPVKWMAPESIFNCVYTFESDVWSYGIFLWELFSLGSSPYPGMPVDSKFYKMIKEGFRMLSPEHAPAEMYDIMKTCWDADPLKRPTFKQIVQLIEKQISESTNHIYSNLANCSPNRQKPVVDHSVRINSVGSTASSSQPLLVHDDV
T2 sequence (P00533 25-1210): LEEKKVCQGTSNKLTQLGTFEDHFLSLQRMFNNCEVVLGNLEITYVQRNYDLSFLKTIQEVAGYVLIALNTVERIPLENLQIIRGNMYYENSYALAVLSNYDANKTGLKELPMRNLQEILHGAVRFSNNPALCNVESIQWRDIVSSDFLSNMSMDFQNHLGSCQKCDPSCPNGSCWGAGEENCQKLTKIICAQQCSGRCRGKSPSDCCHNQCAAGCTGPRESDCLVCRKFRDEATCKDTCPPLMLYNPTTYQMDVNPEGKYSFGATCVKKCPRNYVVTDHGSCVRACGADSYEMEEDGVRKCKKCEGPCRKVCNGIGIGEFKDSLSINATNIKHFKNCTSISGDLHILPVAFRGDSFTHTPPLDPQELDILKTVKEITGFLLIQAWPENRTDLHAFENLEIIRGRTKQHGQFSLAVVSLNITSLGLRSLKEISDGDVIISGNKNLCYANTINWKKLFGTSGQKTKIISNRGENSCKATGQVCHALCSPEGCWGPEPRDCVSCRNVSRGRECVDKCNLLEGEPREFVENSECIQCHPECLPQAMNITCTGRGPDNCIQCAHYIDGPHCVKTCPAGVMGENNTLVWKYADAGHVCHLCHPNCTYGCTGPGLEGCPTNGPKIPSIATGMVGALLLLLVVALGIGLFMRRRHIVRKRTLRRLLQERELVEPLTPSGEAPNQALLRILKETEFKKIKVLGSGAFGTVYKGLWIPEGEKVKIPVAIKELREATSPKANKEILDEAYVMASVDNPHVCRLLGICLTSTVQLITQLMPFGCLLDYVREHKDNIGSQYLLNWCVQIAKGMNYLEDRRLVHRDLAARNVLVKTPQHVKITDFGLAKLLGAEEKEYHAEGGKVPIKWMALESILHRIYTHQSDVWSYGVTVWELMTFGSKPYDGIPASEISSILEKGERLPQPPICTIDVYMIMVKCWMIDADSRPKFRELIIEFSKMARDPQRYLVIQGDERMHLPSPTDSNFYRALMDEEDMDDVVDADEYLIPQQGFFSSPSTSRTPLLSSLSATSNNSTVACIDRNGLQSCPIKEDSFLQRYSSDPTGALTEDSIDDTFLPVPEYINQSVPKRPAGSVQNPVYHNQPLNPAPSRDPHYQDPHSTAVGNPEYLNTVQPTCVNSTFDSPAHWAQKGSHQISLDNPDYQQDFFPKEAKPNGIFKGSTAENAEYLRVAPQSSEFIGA
T3 sequence (P35916 25-1363): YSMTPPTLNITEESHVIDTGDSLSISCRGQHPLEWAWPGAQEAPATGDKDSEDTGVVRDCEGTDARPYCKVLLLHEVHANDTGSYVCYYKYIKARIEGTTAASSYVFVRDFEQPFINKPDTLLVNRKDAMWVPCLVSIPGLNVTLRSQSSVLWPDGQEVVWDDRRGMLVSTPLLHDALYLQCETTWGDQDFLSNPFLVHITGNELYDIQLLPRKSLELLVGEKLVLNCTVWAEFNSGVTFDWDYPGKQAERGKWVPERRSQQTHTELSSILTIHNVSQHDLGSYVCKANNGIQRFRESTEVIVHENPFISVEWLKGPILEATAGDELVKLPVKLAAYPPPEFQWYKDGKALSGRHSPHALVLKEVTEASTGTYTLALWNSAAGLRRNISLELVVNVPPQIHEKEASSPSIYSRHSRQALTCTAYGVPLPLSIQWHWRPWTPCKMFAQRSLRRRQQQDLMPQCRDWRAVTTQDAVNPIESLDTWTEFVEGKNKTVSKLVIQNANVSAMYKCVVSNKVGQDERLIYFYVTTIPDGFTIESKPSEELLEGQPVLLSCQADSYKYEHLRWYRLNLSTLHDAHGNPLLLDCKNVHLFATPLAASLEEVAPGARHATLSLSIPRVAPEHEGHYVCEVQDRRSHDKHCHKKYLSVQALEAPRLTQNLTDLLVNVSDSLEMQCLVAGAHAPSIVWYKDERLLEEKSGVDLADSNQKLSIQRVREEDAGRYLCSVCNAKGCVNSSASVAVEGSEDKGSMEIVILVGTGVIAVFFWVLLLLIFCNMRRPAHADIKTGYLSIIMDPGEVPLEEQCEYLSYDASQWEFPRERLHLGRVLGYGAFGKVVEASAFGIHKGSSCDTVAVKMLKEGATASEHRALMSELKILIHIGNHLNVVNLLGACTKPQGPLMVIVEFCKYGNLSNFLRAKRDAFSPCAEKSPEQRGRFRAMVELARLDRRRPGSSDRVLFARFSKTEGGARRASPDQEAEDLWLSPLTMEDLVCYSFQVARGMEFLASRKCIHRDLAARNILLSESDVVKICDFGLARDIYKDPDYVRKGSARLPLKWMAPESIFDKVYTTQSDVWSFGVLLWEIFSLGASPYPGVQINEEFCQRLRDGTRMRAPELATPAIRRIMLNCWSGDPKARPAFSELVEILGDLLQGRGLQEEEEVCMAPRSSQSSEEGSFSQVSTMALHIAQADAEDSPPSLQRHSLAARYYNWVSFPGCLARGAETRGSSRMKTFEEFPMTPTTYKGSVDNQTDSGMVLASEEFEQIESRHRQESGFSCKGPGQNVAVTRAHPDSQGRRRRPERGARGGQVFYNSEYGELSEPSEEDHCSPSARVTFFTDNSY

| SMILES | % Ctrl, KIT ([1]; KIT) [% Ctrl] | % Ctrl, KIT-autoinhibited ([1]; KIT-autoinhibited) [% Ctrl] | % Ctrl, EGFR ([2]; EGFR) [% Ctrl] | % Ctrl, FLT4 ([3]; FLT4) [% Ctrl] | % Ctrl, ABL1(Q252H)-nonphosphorylated ([4]; ABL1(Q252H)-nonphosphorylated) [% Ctrl] | % Ctrl, ABL1(Q252H)-phosphorylated ([4]; ABL1(Q252H)-phosphorylated) [% Ctrl] | % Ctrl, FLT3(R834Q) ([5]; FLT3(R834Q)) [% Ctrl] | % Ctrl, EGFR(L747-E749del, A750P) ([6]; EGFR(L747-E749del, A750P)) [% Ctrl] | % Ctrl, EGFR(L747-S752del, P753S) ([6]; EGFR(L747-S752del, P753S)) [% Ctrl] | % Ctrl, EGFR(L747-T751del, Sins) ([6]; EGFR(L747-T751del, Sins)) [% Ctrl] | % Ctrl, FLT3(ITD) ([6]; FLT3(ITD)) [% Ctrl] | % Ctrl, FLT3(ITD, D835V) ([6]; FLT3(ITD, D835V)) [% Ctrl] | % Ctrl, FLT3(ITD, F691L) ([6]; FLT3(ITD, F691L)) [% Ctrl] | % Ctrl, KIT-autoinhibited ([1]; target KIT-autoinhibited) [% Ctrl] | % Ctrl, KIT ([1]; target KIT) [% Ctrl] | % Ctrl, EGFR ([2]; target EGFR) [% Ctrl] | % Ctrl, FLT4 ([3]; target FLT4) [% Ctrl] | % Ctrl, ABL1(Q252H)-nonphosphorylated [4, 7] [% Ctrl] | % Ctrl, ABL1(Q252H)-phosphorylated [4, 8] [% Ctrl] | % Ctrl, FLT3(R834Q) ([5]; target FLT3(R834Q)) [% Ctrl] | other results |
| --- | --- | --- | --- | --- | --- | --- | --- | --- | --- | --- | --- | --- | --- | --- | --- | --- | --- | --- | --- | --- | --- |
| Cc1cc2c([nH]1)/C=C1\C(=O)Nc3ccc(cc31)-c1ccnn1CCOCCN(C)C2=O [Ex. 41, [19a(20)Z]-2,5-dimethyl-6,7,9,10-tetrahydro-1H-15,17-(ethanediylidene)pyrazolo[1,5-d]dipyrrolo[3,4-h:2′,3′-k][1,4,14]oxadiazacyclohexadecine-4,19(5H,18H)-dione] | 58 | 78 | 62 | 62 | 9 | 63 | 15 | 87 | 78 | 77 | 13 | 0.8 | 0.35 | – | – | – | – | – | – | – | – |
| Cc1cc2c([nH]1)/C=C1\C(=O)Nc3ccc(cc31)-c1c(noc1C)COCCN(C)C2=O [Ex. 128, [3a(4)Z]-6,9,16-trimethyl-1,11-dihydro-2H,13H-1,17-(ethanediylidene)[1,4]oxazolo[4,3-m]dipyrrolo[3,2-f:3′,4′-i][1,4]oxazacyclopentadecine-3,8(5H,9H)-dione] | 98 | 97 | 91 | 45 | 57 | 42 | 68 | 85 | 93 | 94 | 43 | 5.8 | 10 | – | – | – | – | – | – | – | – |
| Cc1cc2c([nH]1)/C=C1\C(=O)Nc3ccc(cc31)-c1c(noc1C)CNCCN(C)C2=O [Ex. 139, [3a(4)Z]-6,9,16-trimethyl-10,11,12,13-tetrahydro-2H-1,17-(ethanediylidene)[1,2]oxazolo[4,3-m]dipyrrolo[3,2-f:3′,4′-i][1,4]diazacyclopentadecine-3,8(5H,9H)-dione] | – | – | – | – | – | – | – | – | – | – | – | – | – | 81 | 94 | 94 | 23 | 7.8 | 5.1 | 39 | % Ctrl, EGFR(L747-E749del, A750P) [6, 9]: 71 % Ctrl; % Ctrl, EGFR(L747-S752del, P753S) [6, 10]: 77 % Ctrl; % Ctrl, EGFR(L747-T751del, Sins) [6, 11]: 81 % Ctrl; % Ctrl, FLT3(ITD) ([6]; target FLT3(ITD)): 8.1 % Ctrl; % Ctrl, FLT3(ITD, D835V) ([6]; target FLT3(ITD, D835V)): 1.2 % Ctrl; % Ctrl, FLT3(ITD, F691L) ([6]; target FLT3(ITD, F691L)): 0.9 % Ctrl |
| Cc1cc2c([nH]1)/C=C1\C(=O)Nc3ccc(cc31)CN(C)C(=O)COCCNC2=O [Ex.111, [17a(18)Z]-2,11-dimethyl-6,7,11,12-tetrahydro-1H-13,15-(ethanediylidene)dipyrrolo[3,2-f:3′,4′-i][1,4,14]oxadiazacyclohexadecine-4,10,17(5H,9H,16H)-trione] | 99 | 100 | 74 | 74 | 75 | 57 | 39 | 83 | 100 | 59 | 6.9 | 0.45 | 5.8 | – | – | – | – | – | – | – | – |
| Cc1cc2c([nH]1)/C=C1\C(=O)Nc3cc(Cl)c(cc31)OCCOCCN(C)C2=O [Ex. 131, [16a(17)Z]-19-chloro-2,5-dimethyl-6,7,9,10-tetrahydro-1H-12,14-(ethanediylidene)dipyrrolo[3,2-i:3′,4′-l][1,4,7]dioxazacyclopentadecine-4,16(5H,15H)-dione] | 1.1 | 13 | 52 | 0 | 0 | 0.2 | 6.6 | 31 | 50 | 59 | 0.85 | 0 | 0.6 | – | – | – | – | – | – | – | – |
| CN1CCSCCOc2cc3c(cc2Cl)NC(=O)/C3=C\c2[nH]ccc2C1=O [Ex. 153] | – | – | – | – | – | – | – | – | – | – | – | – | – | 14 | 0.8 | 61 | 11 | 1.8 | 7.9 | 19 | % Ctrl, EGFR(L747-E749del, A750P) [6, 9]: 85 % Ctrl; % Ctrl, EGFR(L747-S752del, P753S) [6, 10]: 57 % Ctrl; % Ctrl, EGFR(L747-T751del, Sins) [6, 11]: 38 % Ctrl; % Ctrl, FLT3(ITD) ([6]; target FLT3(ITD)): 0.5 % Ctrl; % Ctrl, FLT3(ITD, D835V) ([6]; target FLT3(ITD, D835V)): 0.5 % Ctrl; % Ctrl, FLT3(ITD, F691L) ([6]; target FLT3(ITD, F691L)): 0.5 % Ctrl |
| CN1CCOCCOc2cc3c(cc2Cl)NC(=O)/C3=C\c2[nH]ccc2C1=O [Ex. 143, [16a(17)Z]-19-chloro-2,5-dimethyl-6,7,9,10-tetrahydro-1H-12,14-(ethanediylidene)dipyrrolo[3,2-i:3′,4′-l][1,4,7]oxathiazacyclopentadecine-4,16(5H,15H)-dione] | – | – | – | – | – | – | – | – | – | – | – | – | – | 40 | 9.9 | 100 | 39 | 4.1 | 5.2 | 33 | % Ctrl, EGFR(L747-E749del, A750P) [6, 9]: 90 % Ctrl; % Ctrl, EGFR(L747-S752del, P753S) [6, 10]: 89 % Ctrl; % Ctrl, EGFR(L747-T751del, Sins) [6, 11]: 96 % Ctrl; % Ctrl, FLT3(ITD) ([6]; target FLT3(ITD)): 2.5 % Ctrl; % Ctrl, FLT3(ITD, D835V) ([6]; target FLT3(ITD, D835V)): 0.6 % Ctrl; % Ctrl, FLT3(ITD, F691L) ([6]; target FLT3(ITD, F691L)): 1 % Ctrl |
